Measurements taken from PMC7925099, “Identification of an Antiretroviral Small Molecule That Appears To Be a Host-Targeting Inhibitor of HIV-1 Assembly” (Journal of Virology, 2021).

Key:
[1] = tested on: HIV-1 LAI pro– Δenv (pseudotyped with HIV-1 NL4-3 Env); experiment: MT-2 acute infection assay (VLP, intracellular Gag, assembly intermediates); conditions: MT-2 cells
Method: For Fig. 3B, culture supernatants were collected at 48 h, and virus was pelleted by adding 75 μl of 17% PEG 6000–0.8 M NaCl–PBS to 75 μl of medium from the assay in a 96-well V-bottom polypropylene plate. PEG and media were incubated on ice for 2 h or overnight at 4°C. Virus was pelleted at 1,847 × g for 30 min at 4°C in the plate in an Allegra centrifuge (Beckman), and the pellet was resuspended in 50 μl of loading buffer with dithiothreitol for analysis by WB with αGag. For Fig. 4, culture supernatants were collected at 48 h postinfection and filtered through a 0.45-μm PES syringe filter to remove any remaining cells. Virus-like particles were centrifuged through a 30% (wt/vol) sucrose-PBS cushion at 130,000 × g, 30 min, and 4°C in an SW55Ti rotor (Beckman), and the virus pellet was harvested for analysis by WB with αGag.
MT-2 cells were diluted to 2 × 10^6 cells/ml with complete RPMI and bulk infected at an MOI of 1 for 2 h at 37°C. Compound was diluted 100-fold to the final required concentration with DMSO. The compound dilutions and DMSO-only controls were then further diluted 50-fold with complete RPMI, and 1 ml of the dilutions was added per well in a 12-well plate. Bulk-infected cells were then washed and adjusted to 0.5 × 10^6 cells/ml, and 1 ml of infected cells was added to each well containing diluted compound or DMSO. At 48 h, the medium was collected for virus pelleting as described above, and the cells were washed and lysed (see “Cell lysis” below).
MT-2 cells were collected and washed three times by pelleting at 200 × g for 5 min at 4°C in an Allegra centrifuge (Beckman) and resuspending cells in ice-cold PBS. Cell pellets were lysed with 250 μl lysis buffer (20 mM HEPES [pH 7.9], 14 mM potassium acetate, 1 mM MgCl2, 0.3% NP-40), followed by shearing 20× with a 20-gauge needle. Cell lysate was then clarified 200 × g for 10 min at 4°C in an Allegra centrifuge (Beckman). The supernatant was transferred to a fresh tube and further clarified by centrifugation at 18,000 × g for 10 min at 4°C in a Microfuge (Beckman), and the supernatant was transferred to a fresh tube.
To prepare gradients, 10, 15, 40, 50, 60, 70, and 80% (wt/vol) sucrose solutions were prepared with water, and then each was diluted 1/10 with a 10× stock of the lysis buffer used to harvest cells (see “Cell lysis”). For each gradient, ∼100 μl of cell lysate (∼100 μg of total protein) was layered on a 5-ml step gradient containing equivalent layers of each diluted sucrose solution prepared and subjected to velocity sedimentation in a Beckman MLS-50 rotor 217,000 × g for 45 min at 4°C. Gradients were fractionated from top to bottom, and pelleted material was harvested for WB. Aliquots of fractions and pellet were analyzed by SDS-PAGE, followed by WB with αGag.

in vitro [2] = conditions: human, CC50
Method: (§1) For each viral inhibition assay, a cytotoxicity assay was performed in parallel on uninfected cells by adding 1/10 volume of alamarBlue (Thermo Fisher, Waltham, MA; DAL1199) to the plates, followed by thorough mixing. AlamarBlue-treated plates were incubated for 2 to 3 h at 37°C (the timing was optimized for the linear signal), mixed well, and read using a fluorescence plate reader with 560 nm and 590 nm as the excitation and emission settings, respectively (Synergy H1; BioTek Instruments, Inc.).
(§2) EC50 and CC50 values were determined in Excel using four-parameter logistic regression analysis of dose-response data generated from the viral inhibition or cytotoxicity assays, respectively. […] Average EC50 and CC50 values were calculated using the geometric mean and average values were reported with the geometric standard deviation (GSD).

[3] = tested on: HIV-1 (chronically infected H9 T cells, H9-HIV); experiment: Inhibition of HIV-1 late events: virus production (αGag WB of pelleted virus); type: cell-based; conditions: Human immunodeficiency virus 1, T-cell
in vitro [4] = conditions: cat
Method: as §1, §2

HIV-1 NL4-3 RLuc = experiment: MT-2 spreading infection assay (inhibition of HIV-1 replication); conditions: for EC50: Human immunodeficiency virus 1, NL43, T-cell, 96 h, read-out: EC50 for inhibition of HIV-1 replication; for SI (CC50/EC50): from average values
Method: Inhibition of HIV-1 viral replication was assayed in a spreading infection using MT-2 cells and NL4-3 RLuc reporter virus. For dose-response curves, compounds were initially diluted with DMSO to 100-fold the starting concentration in a 96-well plate and subjected to a series of 3-fold dilutions in DMSO for a total of eight or nine dilutions. If a single compound concentration was tested, the compound was diluted to 100-fold the desired concentration in DMSO. Compounds were then diluted 50-fold with infection media prepared by diluting NL4-3 RLuc virus stock to 400 IU/100 μl with complete RPMI. Then, 100 μl of 50-fold-diluted compound was transferred to 20,000 MT-2 cells that were preseeded in 96-well plates in 100 μl of complete RPMI for a final volume of 200 μl, followed by incubation at 37°C for 96 h. The final MOI in infected plates was 0.02, and the final DMSO concentration in all wells was 1%. All assays were run with three replicates. For each replicate, one well received DMSO only, and one well received medium only for normalization and background correction. […] Plates were read on a luminescence plate reader (Synergy H1; BioTek Instruments, Inc.).
as §2

[5] = Cytotoxicity assay on SupT1.CCR5 cells; conditions: human, SupT1.CCR5 cells (uninfected)
Method: as §1, §2

FIV 34TF10 = experiment: FIV inhibition assay (spreading infection, RT activity); type: cell-based, feline immunodeficiency virus
Method: G355-5 cells were transfected in six-well plates, and each well was transfected with 2 μg per well of FIV 34TF10 ORFA+ proviral plasmid. At 24 h posttransfection, the cells were washed, and the medium was replaced with 4 ml of complete McCoy 5A. At 144 h posttransfection, the medium was filtered using a 0.45-μm syringe filter, aliquoted, and stored at −80°C. The reverse transcriptase (RT) activity in media from FIV or mock-transfected cells was estimated using SG-PERT ([94]). A set of recombinant RT standards (EMD Millipore, Molsheim, France; catalog no. 382129) ranging from 5.12E3 to 5.12E9 nU/ml was used to estimate the nU/ml of RT activity in the FIV stock.
Inhibition of FIV spreading infection was assayed using G355-5 cells, seeded on the prior day at 8,000 cells/well in a 96-well plate.

in vitro [6] = type: cell-based; conditions: human
[7] = tested on: influenza A virus WSN/33 (H1N1) (FLUV); type: cell-based
[8] = tested on: HIV-1 (chronically infected H9 T cells, H9-HIV); experiment: Inhibition of HIV-1 late events: infectious virus production by H9-HIV cells; type: cell-based; conditions: Human immunodeficiency virus 1, 48 h, titered on TZM-bl cells, read-out: EC50INF (inhibition of infectivity of culture supernatant)
Method: For these experiments, we used H9-HIV, a chronically infected H9 T cell line. Compounds were diluted as described under MT-2 spreading infection above. […] To measure inhibition of virus production (Fig. 3B, blue graph and blot), PEG pelleted virus (harvested as described in “Virus pelleting” above) was analyzed by WB with αGag.

MT-2 cells [9] = tested on: MT-2 cells
Method: as §1, §2

HIV-1 NL4-3 [10] = type: cell-based; conditions: MT-2 cells, 37 weeks of selection
HIV-1 NL4-3 [11] = experiment: PBMC spreading infection assay; type: cell-based
Method: Thawed, unstimulated PBMCs (BenTech, Seattle, WA) were pelleted by centrifugation 228 × g for 8 min in an Allegra centrifuge (Beckman, Brea, CA). Pellets were resuspended in activation medium containing RPMI supplemented with 21 ng/ml human interleukin-2 (IL-2; […] Remel, San Diego, CA; R30852801), 10% FBS, and 1% penicillin-streptomycin, at a density of 2 × 10^6 cells/ml. After a 3-day incubation, the cells were collected and resuspended in RPMI with 20% FBS and 10% DMSO and then frozen as 50 × 10^6 cells per vial. […] Compound dilutions were prepared in complete PBMC medium as described above, but without virus, and 100 μl of diluted compound was transferred to 96-well U-bottom plates. Bulk-infected cells were pelleted and resuspended in complete PBMC medium at 1 × 10^6 cells/ml, and 100 μl of cell suspension was transferred to each well at 100,000 cells per well with diluted compound. After 96 h, the medium was collected for relative infectivity measurements as for the SupT1.CCR5 spreading infection assay.

MT-2 cells [12] = experiment: Cytotoxicity assay (alamarBlue) on uninfected MT-2 T cells; conditions: uninfected MT-2 cells
Method: as §1, §2

PBMCs = conditions: human
Method: as §1, §2

## COc1cc(C)c(/C=C/C2NCCc3cc(OCc4ccccc4)c(OC)cc32)cc1OCc1ccccc1 (stereo not drawn) [PAV-117]
[1]; 48 h treatment
  ∼EC70 (treatment concentration): ~0.25 nM
[1]; 48 h
  steady-state levels of actin and GAPDH: minimally affected
[1]; 48 h, velocity sedimentation
  steady-state level of the ∼500S intermediate as a percentage of total Gag: dose-dependent decrease
[1]; protease-deficient provirus, 48 h
  VLP release into the supernatant: dose-dependent reduction
[1]; highest PAV-117 concentration tested, 48 h
  steady-state intracellular p55 Gag levels: some reduction
In vitro [2]
  CC50: 1000 nM
[3]; 2 nM, H9-HIV, WB of virus pellets, read-out: % inhibition of virus production (relative to DMSO)
  inhibition at 0.002 µM: 2%
[3]; 5 nM, H9-HIV, WB of virus pellets, read-out: % inhibition of virus production (relative to DMSO)
  inhibition at 0.005 µM: 7%
[3]; 16 nM, H9-HIV, WB of virus pellets, read-out: % inhibition of virus production (relative to DMSO)
  inhibition at 0.016 µM: 7%
[3]; 49 nM, H9-HIV, WB of virus pellets, read-out: % inhibition of virus production (relative to DMSO)
  inhibition at 0.049 µM: 31%
[3]; 148 nM, H9-HIV, WB of virus pellets, read-out: % inhibition of virus production (relative to DMSO)
  inhibition at 0.148 µM: 48%
[3]; 444 nM, H9-HIV, WB of virus pellets, read-out: % inhibition of virus production (relative to DMSO)
  inhibition at 0.444 µM: 86%
[3]; 1333 nM, H9-HIV, WB of virus pellets, read-out: % inhibition of virus production (relative to DMSO)
  inhibition at 1.333 µM: 92%
[3]; 4000 nM, H9-HIV, WB of virus pellets, read-out: % inhibition of virus production (relative to DMSO)
  inhibition at 4 µM: 96%
[3]; 10000 nM, H9-HIV, WB of virus pellets, read-out: % inhibition of virus production (relative to DMSO)
  inhibition at 10 µM: 92%
[3]; H9-HIV cells, 48 h, αGag WB, read-out: EC50VLP (inhibition of virus production, p24 Gag in virus pellets)
  EC50: 113 nM
In vitro [4]
  CC50: 1100 nM
HIV-1 NL4-3 RLuc
  EC50: 48 nM
HIV-1 NL4-3 RLuc; MT-2 cells
  SI (CC50/EC50): 14
HIV-1 NL4-3 RLuc; MT-2 cells, from the shown dose-response curve
  selectivity index (CC50/EC50): 21
[5]
  CC50: 1100 nM
FIV 34TF10; Feline immunodeficiency virus, feline G355-5 cells, FIV 34TF10, 144 h, RT activity, read-out: EC50 for inhibition of FIV replication
  EC50: 595 nM
FIV 34TF10; G355-5 cells
  fold by which FIV EC50 is lower than CC50 in G355-5 cells: < 2 fold
In vitro [6]
  CC50: 1600 nM
[7]
  activity against FLUV (infectious titer): not active
[8]
  EC50: 104 nM
MT-2 cells [9]
  CC50 (μM): 1.4 ×/÷ 1.5 μM
MT-2 cells [9]; human
  CC50: 1100 nM

## COc1cc(C)c(/C=C/C2NCCc3cc(OCc4ccccc4)c(OC)cc32)cc1OC (stereo not drawn) [PAV-206]
HIV-1 NL4-3 [10]
  resistance level reached: compound concentration allowing virus replication, fold higher than the EC50: 8 fold
HIV-1 NL4-3 RLuc
  EC50: 34 nM
HIV-1 NL4-3 RLuc; MT-2 cells
  SI (CC50/EC50): 61
HIV-1 NL4-3 [11]; HIV-1-infected PBMCs
  selectivity index: 48
HIV-1 NL4-3 [11]; Human immunodeficiency virus 1, NL43, PBMC, PHA-activated PBMCs, HIV-1 NL4-3, MOI 0.008, 96 h
  EC50: 75 nM
MT-2 cells [9]
  CC50 (μM): 2.2 ×/÷ 1.4 μM
MT-2 cells [12]
  CC50MT-2: 2811 nM
PBMCs
  CC50PBMC: 3591 nM
